Common to all, as to assay type: functional
For assay [1], the system named is MDA-MB-468. As to the kind of experiment: Cytotoxicity against EGFR over-expressing human MDA-MB-468 cells assessed as cell viability at 10 uM after 48 hrs by MTT assay relative to control. The note with it: MDA-MB-468, 48 h, read-out: Activity. A general note: Formazan colour is commonly taken as a measure of viable cells.
Assay [2] concerns MCF7. The assay is described as follows: Cytotoxicity against human MCF7 cells assessed as cell viability at 10 uM after 48 hrs by MTT assay relative to control. Conditions: MCF7, 48 h, read-out: Activity.
Assay [3] concerns MDA-MB-468. The assay is described as follows: cells. The note with it: Homo sapiens, MDA-MB-468, 48 h.
Description: Growth inhibition of EGFR over-expressing human MDA-MB-468 cells after 48 hrs by MTT assay
Assay [4] has as its system MCF7. The assay is described as follows: cells. Conditions: Homo sapiens, MCF7, 48 h.
Description: Growth inhibition of human MCF7 cells after 48 hrs by MTT assay
Assay [5] is described as follows: Selectivity index, ratio of GI50 for human MCF7 cells to GI50 for EGFR over-expressing human MDA-MB-468 cells.

This note sets out measurements from ChEMBL document CHEMBL4308870, “Discovery and SAR studies of novel 2-anilinopyrimidine-based selective inhibitors against triple-negative breast cancer cell line MDA-MB-468” (2019).

Molecules are shown by their SMILES.

As a reminder, the GI50 is the concentration that inhibits growth by half. Low readings indicate more potent growth inhibition, high ones less potent growth inhibition.

Take `c1cc(N2CCSCC2)nc(Nc2ccc(OCCCN3CCSCC3)cc2)n1`: the viability at 10 µM in the assay on MDA-MB-468 [1] amounted to 65%; in the assay on MCF7 [2], 77.8%.

Consider `COc1cc2ncnc(Nc3ccc(F)c(Cl)c3)c2cc1OCCCN1CCOCC1` [GEFITINIB], for which the viability at 10 µM with MDA-MB-468 [1] was determined as 60.3%; in the assay on MCF7 [2], 70.3%.

`c1cc(N2CCCC2)nc(Nc2ccc(OCCCN3CCOCC3)cc2)n1`: the viability at 10 µM in the assay with MDA-MB-468 [1] is 77.1%; with MCF7 [2], 89%.

For `CN1CCN(c2ccnc(Nc3ccc(OCCCN4CCOCC4)cc3)n2)CC1`, the figures for the viability at 10 µM with MDA-MB-468 [1] and in the assay on MCF7 [2] were 80.7% and 89.6%, respectively.

For `CCN(CC)CCCOc1ccc(Nc2nccc(N3CCCCC3)n2)cc1`, the viability at 10 µM in the assay on MDA-MB-468 [1] came out at 62%; with MCF7 [2], 95.4%.

Regarding `c1cc(N2CCCC2)nc(Nc2ccc(OCCCN3CCSCC3)cc2)n1`, the viability at 10 µM in the assay on MDA-MB-468 [1] worked out at 78.3%; in the assay on MCF7 [2] it was 84.7%.

As for `c1cc(N2CCOCC2)nc(Nc2ccc(OCCCN3CCSCC3)cc2)n1`, the results for the viability at 10 µM in the assay with MDA-MB-468 [1] and in the assay with MCF7 [2] were 57.4% and 67.9%, respectively.

For `CN1CCN(c2ccnc(Nc3ccc(OCCCN4CCCCC4)cc3)n2)CC1`, the viability at 10 µM came to 71.7% with MDA-MB-468 [1] and 76.9% in the assay with MCF7 [2].

Regarding `CCN(CC)c1ccnc(Nc2ccc(OCCCN3CCSCC3)cc2)n1`, the viability at 10 µM came to 36% with MDA-MB-468 [1] and 91.9% in the assay with MCF7 [2]. The GI50 with MDA-MB-468 [3] amounted to 7.6 µM; with MCF7 [4], 27.3 µM. Further, the RatioGI50 in assay [5] is 3.6.

With `c1cc(N2CCCCC2)nc(Nc2ccc(OCCCN3CCCCC3)cc2)n1`, the figures for the viability at 10 µM in the assay on MDA-MB-468 [1] and in the assay on MCF7 [2] were 45.1% and 86.7%, respectively. In addition, the GI50 in the assay with MDA-MB-468 [3] was 9.2 µM; in the assay on MCF7 [4], above 30 µM. Also, in assay [5], the RatioGI50 is given as above 3.3.

As to `ClC1CCN(c2ccnc(Nc3ccc(OCCCN4CCSCC4)cc3)n2)CC1`, the viability at 10 µM was determined as 62.7% with MDA-MB-468 [1] and 87.7% in the assay with MCF7 [2].

With `CCN(CC)CCCOc1ccc(Nc2nccc(N3CCC(C)CC3)n2)cc1`, the viability at 10 µM worked out at 16.9% in the assay with MDA-MB-468 [1] and 93.2% in the assay on MCF7 [2]. The figures for the GI50 in the assay on MDA-MB-468 [3] and with MCF7 [4] were 6.9 µM and above 30 µM, respectively. Besides, in assay [5], the RatioGI50 is listed as above 4.3.

Take `CCN(CC)c1ccnc(Nc2ccc(OCCCN3CCCCC3)cc2)n1`: the viability at 10 µM turned out to be 53.1% in the assay with MDA-MB-468 [1] and 69.7% in the assay with MCF7 [2]. Moreover, the 50% growth inhibitory concentration (GI50) with MDA-MB-468 [3] stood at 11.4 µM; in the assay on MCF7 [4], 18.3 µM. Also, in assay [5], the RatioGI50 is listed as 1.6.

Turning to `c1cc(N2CCSCC2)nc(Nc2ccc(OCCCN3CCCCC3)cc2)n1`, the viability at 10 µM with MDA-MB-468 [1] is 78.1%; in the assay with MCF7 [2], 60%.

For the compound `ClC1CCN(c2ccnc(Nc3ccc(OCCCN4CCCCC4)cc3)n2)CC1`, the results for the viability at 10 µM with MDA-MB-468 [1] and in the assay with MCF7 [2] were 52.1% and 87.1%, respectively. Further, the concentration for 50% growth inhibition (GI50) is 11.5 µM in the assay with MDA-MB-468 [3] and above 30 µM in the assay with MCF7 [4]. Also, the RatioGI50 in assay [5] is above 2.6.

Regarding `CCN(CC)CCCOc1ccc(Nc2nccc(N3CCN(C)CC3)n2)cc1`, the viability at 10 µM is 64.6% in the assay on MDA-MB-468 [1] and 67% with MCF7 [2].

For the compound `CN1CCN(c2ccnc(Nc3ccc(OCCCN4CCSCC4)cc3)n2)CC1`, the viability at 10 µM stood at 56.5% in the assay with MDA-MB-468 [1] and 79.8% in the assay with MCF7 [2].

Turning to `c1cc(N2CCCC2)nc(Nc2ccc(OCCCN3CCCCC3)cc2)n1`, the viability at 10 µM turned out to be 58.1% with MDA-MB-468 [1] and 66.1% in the assay on MCF7 [2].

As for `CCN(CC)CCCOc1ccc(Nc2nccc(N3CCCC3)n2)cc1`, the viability at 10 µM in the assay on MDA-MB-468 [1] worked out at 69.7%; in the assay with MCF7 [2] it was 78.5%.

On to `c1cc(N2CCOCC2)nc(Nc2ccc(OCCCN3CCCCC3)cc2)n1`, for which the figures for the viability at 10 µM with MDA-MB-468 [1] and in the assay on MCF7 [2] were 86.8% and 95.7%, respectively.

Take `c1cc(N2CCCCC2)nc(Nc2ccc(OCCCN3CCSCC3)cc2)n1`: the viability at 10 µM in the assay with MDA-MB-468 [1] stood at 71.8%; with MCF7 [2], 72.9%.

With `CCN(CC)CCCOc1ccc(Nc2nccc(N3CCSCC3)n2)cc1`, the viability at 10 µM came out at 88% with MDA-MB-468 [1] and 86.4% in the assay on MCF7 [2].

Take `c1cc(N2CCCCC2)nc(Nc2ccc(OCCCN3CCOCC3)cc2)n1`: the viability at 10 µM with MDA-MB-468 [1] was determined as 55.2%; with MCF7 [2], 61.8%. In addition, the GI50 in the assay on MDA-MB-468 [3] is 18.3 µM; with MCF7 [4], above 30 µM.

Take `CCN(CC)c1ccnc(Nc2ccc(OCCCN3CCOCC3)cc2)n1`: the viability at 10 µM with MDA-MB-468 [1] turned out to be 69.7%; in the assay with MCF7 [2], 94.9%.

As to `CC1CCN(c2ccnc(Nc3ccc(OCCCN4CCSCC4)cc3)n2)CC1`, the figures for the viability at 10 µM in the assay on MDA-MB-468 [1] and in the assay with MCF7 [2] were 61.3% and 79.5%, respectively.

Regarding `c1cc(N2CCOCC2)nc(Nc2ccc(OCCCN3CCOCC3)cc2)n1`, the viability at 10 µM amounted to 84.5% in the assay with MDA-MB-468 [1] and 83.2% in the assay with MCF7 [2].

With `CC1CCN(c2ccnc(Nc3ccc(OCCCN4CCOCC4)cc3)n2)CC1`, the viability at 10 µM with MDA-MB-468 [1] worked out at 51.3%; with MCF7 [2], 71.8%. Besides, the concentration for 50% growth inhibition (GI50) is 16.3 µM in the assay with MDA-MB-468 [3] and above 30 µM with MCF7 [4]. In addition, in assay [5], the RatioGI50 is above 1.8.

Regarding `CC1CCN(c2ccnc(Nc3ccc(OCCCN4CCCCC4)cc3)n2)CC1`, the figures for the viability at 10 µM in the assay with MDA-MB-468 [1] and with MCF7 [2] were 21.3% and 73.7%, respectively. Also, the values for the GI50 in the assay with MDA-MB-468 [3] and with MCF7 [4] were 6.4 µM and 28.1 µM, respectively. Also, in assay [5], the RatioGI50 amounted to 4.4.

For `c1cc(N2CCSCC2)nc(Nc2ccc(OCCCN3CCOCC3)cc2)n1`, the viability at 10 µM with MDA-MB-468 [1] turned out to be 73.4%; in the assay on MCF7 [2], 86.1%.

For `ClC1CCN(c2ccnc(Nc3ccc(OCCCN4CCOCC4)cc3)n2)CC1`, the figures for the viability at 10 µM in the assay on MDA-MB-468 [1] and with MCF7 [2] were 61.6% and 93.3%, respectively.

With `CCN(CC)CCCOc1ccc(Nc2nccc(N3CCOCC3)n2)cc1`, the viability at 10 µM with MDA-MB-468 [1] is 79.4%; in the assay with MCF7 [2], 66.5%.
